Data: patent US10087165B2, “Fluoroquinolones and use thereof to treat bacterial infections” (UNIVERSITÉ PIERRE ET MARIE CURIE—PARIS 6 (UPMC), priority 2014, dated 2018)
Values after ≈ are worked out from the molar mass of the structure shown. Read-outs that look alike come from different tables or passages of the source.

Columns and labels:
[1] = test system: M. tuberculosis H37Rv strain; experiment: Minimal effective dosage in the murine TB model; format: in vivo, Balb/C/J female mice; parameters: Mice weight: unit not given here; conditions: for Mice weight / Spleen weight / Survival: No. death: Gavage; for Survival: No. death: 10 mice
Protocol: Four-week-old Balb/C/J female mice were infected intravenously with 10^6 CFU of M. tuberculosis H37Rv strain. On the day following the infection (D1), 10 mice were sacrificed to determine the exact baseline values of spleen weight and CFU counts in the lungs. The remaining mice were allocated to the following treatment groups: an untreated negative control group for survival monitoring, a positive control group treated for 1 month with isoniazid (INH) 25 mg/kg/d, […] test groups were treated with Quin18 and Quin19 at increasing dosages (25 mg/kg/d; 50 mg/kg/d; 100 mg/kg/d; 150 mg/kg/d) given by oral gavage, and two additional test groups were treated intravenously with Quin18 25 mg/kg/d and 100 mg/kg/d. All the groups contained 10 mice and were treated from D1 to D28, 5 days a week. The parameters used for assessing the severity of infection and the effectiveness of treatments were survival rate, spleen weight, gross lung lesions and CFU counts in the lungs.
The minimal effective dosage was defined as the minimal dosage able to prevent mortality of the mice, spleen enlargement and the occurrence of gross lung lesions. CFU counts were considered to be a more precise way of determining the dose-ranging efficacy of Quin18 and Quin19.
Survival rates between groups were plotted on a Kaplan-Meier curve and compared using the log-rank test.

M. tuberculosis H37Rv = experiment: microbe, parasite or virus in culture; format: cell-based; conditions: for MIC: Mycobacterium tuberculosis
[2] = Acute toxicity in healthy female CD-1 mice after a single oral treatment; format: in vivo
Protocol: The aim of this study was to evaluate the acute toxicity of two new compounds (Quin 18 and Quin 19) in healthy female CD-1 after a single oral treatment at D0.
Toxicity of treatment was evaluated by monitoring of animals (general signs of pharmacologic and toxicity effects, morbidity, mortality and evident signs of toxicity, as well as twice-weekly monitoring for clinical signs and body weight) until the end of the experiment (D14). At the end of the experiment, animals were sacrificed and macroscopic autopsy was performed.
Mice of each group were administered by per os (PO) injection at 10 ml/kg according to the standard operating procedure No. TEC-078. The recommended volume for per os (PO) administration in mice is 10 ml/kg.
Morbidity, mortality and evident signs of toxicity of mice were considered daily from D0 until the end of the experiment (D14 or D15).
Monitoring of mice for detailed behavioral and clinical observations was performed twice a week from D0 until the end of the experiment (D14 or D15) according to the standard operating procedures No. TEC-192.
Body weight of mice was monitored at D1, D2 and then twice a week until the end of the experiment (D14 or D15) according to the standard operating procedures No. TEC-108. Weight loss was assessed against the starting weight of each mouse at D0.
During the course of the experiment, animals were sacrificed if any of the following occurs: • Signs of suffering (cachexia, weakening, difficulty to move or to eat), • Compound toxicity (hunching, convulsions), • 25% body weight loss on any day. Sacrifice of Animals
At D14 or D15, animals were be sacrificed by CO2 inhalation and a macroscopic autopsy was performed.

[3] = target: M. tuberculosis DNA gyrase (Mycobacterium tuberculosis, UniProt P9WG45+P9WG47); experiment: biochemical
[4] = format: physicochemical
Protocol: A solubility assay was performed on both Quin 18 and Quin 19 in appropriated vehicles for per os injection into mice to obtain a fine suspension at maximal concentration (MC) of each compound. The solubility of each compound in each vehicle was evaluated by observation of potential precipitate.

M. tuberculosis DNA gyrase, sequence (P9WG47 whole entry): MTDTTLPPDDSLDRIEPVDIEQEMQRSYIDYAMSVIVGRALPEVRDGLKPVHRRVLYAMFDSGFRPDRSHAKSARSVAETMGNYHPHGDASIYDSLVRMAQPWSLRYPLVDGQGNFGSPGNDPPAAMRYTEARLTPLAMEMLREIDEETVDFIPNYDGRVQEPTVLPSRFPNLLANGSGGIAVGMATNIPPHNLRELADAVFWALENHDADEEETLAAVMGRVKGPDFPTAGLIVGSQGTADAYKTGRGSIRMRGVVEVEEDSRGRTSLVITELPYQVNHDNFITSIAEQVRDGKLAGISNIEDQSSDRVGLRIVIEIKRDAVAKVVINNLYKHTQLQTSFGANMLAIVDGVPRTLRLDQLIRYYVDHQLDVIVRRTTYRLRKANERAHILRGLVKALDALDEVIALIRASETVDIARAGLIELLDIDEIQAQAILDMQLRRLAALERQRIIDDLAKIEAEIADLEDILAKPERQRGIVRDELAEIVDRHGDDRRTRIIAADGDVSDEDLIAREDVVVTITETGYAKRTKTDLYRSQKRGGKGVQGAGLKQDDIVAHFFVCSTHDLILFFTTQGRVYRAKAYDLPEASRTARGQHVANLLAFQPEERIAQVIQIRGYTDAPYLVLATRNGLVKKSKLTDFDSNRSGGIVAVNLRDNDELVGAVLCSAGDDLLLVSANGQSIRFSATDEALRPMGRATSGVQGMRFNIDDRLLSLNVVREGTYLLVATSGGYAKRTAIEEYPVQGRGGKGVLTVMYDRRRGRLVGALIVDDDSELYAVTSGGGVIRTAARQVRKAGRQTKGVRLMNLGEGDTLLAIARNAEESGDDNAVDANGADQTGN
M. tuberculosis DNA gyrase, sequence (P9WG45 whole entry): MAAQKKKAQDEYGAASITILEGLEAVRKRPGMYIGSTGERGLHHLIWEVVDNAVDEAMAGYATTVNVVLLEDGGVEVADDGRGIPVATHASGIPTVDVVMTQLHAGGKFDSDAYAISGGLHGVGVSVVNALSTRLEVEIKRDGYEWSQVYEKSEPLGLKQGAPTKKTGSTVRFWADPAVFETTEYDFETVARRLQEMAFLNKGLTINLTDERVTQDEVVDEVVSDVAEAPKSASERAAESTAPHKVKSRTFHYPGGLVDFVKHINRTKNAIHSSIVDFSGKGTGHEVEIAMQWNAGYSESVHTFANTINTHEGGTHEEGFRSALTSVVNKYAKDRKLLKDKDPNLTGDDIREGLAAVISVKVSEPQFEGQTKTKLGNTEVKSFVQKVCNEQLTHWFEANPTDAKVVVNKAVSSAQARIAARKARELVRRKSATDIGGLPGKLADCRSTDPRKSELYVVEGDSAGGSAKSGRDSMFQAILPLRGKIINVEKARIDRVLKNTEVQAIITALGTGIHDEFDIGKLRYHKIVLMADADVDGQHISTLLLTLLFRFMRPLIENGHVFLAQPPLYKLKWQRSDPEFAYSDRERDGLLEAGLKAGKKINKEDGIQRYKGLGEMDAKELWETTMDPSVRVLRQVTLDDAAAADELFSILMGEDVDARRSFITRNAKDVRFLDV

CCCCCCCCCCN1CCN(c2c(F)cc3c(=O)c(C(=O)O)cn(C4CC4)c3c2OC)CC1 [Quin 19, 1-cyclopropyl-7-(4-decylpiperazin-1-yl)-6-fluoro-8-methoxy-4-oxo-1,4-dihydroquinoline-3-carboxylic acid]
Mice weight ([1]; 25 mg/kg/j): 19.3 ± 2.6 | Spleen weight ([1]; 25 mg/kg/j): 332 ± 141.1 mg | Survival: No. death ([1]; 25 mg/kg/j, D1 to D28, 5 days a week): 1 | Mice weight ([1]; 50 mg/kg/j): 18 ± 3.4 | Spleen weight ([1]; 50 mg/kg/j): 305.6 ± 181.5 mg | Survival: No. death ([1]; 50 mg/kg/j): 2 | Mice weight ([1]; 100 mg/kg/j): 20.2 ± 1.3 | Spleen weight ([1]; 100 mg/kg/j): 253 ± 127.2 mg | Survival: No. death ([1]; 100 mg/kg/j): 0 | Mice weight ([1]; 150 mg/kg/j): 20.7 ± 0.8 | Spleen weight ([1]; 150 mg/kg/j): 222 ± 106.2 mg | Survival: No. death ([1]; 150 mg/kg/j): 0 | Efficacy in a mouse model of tuberculosis (in words) ([1]; given orally): outstanding efficacy | Survival compared with untreated group (in words) ([1]; whatever the dosage (25, 50, 100 and 150 mg/kg/d) and the administration route): statistically superior to untreated group | antibacterial activity against wild-type M. tuberculosis strain (in words) (M. tuberculosis H37Rv; H37Rv): high antibacterial activity | MIC (M. tuberculosis H37Rv; H37RV, Table 3, read-out: MIC M. tuberculosis H37Rv): < 0.12 µM | MIC (M. tuberculosis H37Rv; H37Rv, Table 2, read-out: MIC (M. tuberculosis) WT): 0.25 µM (≈ 0.125 µg/mL) | Loss of body weight (in words) ([2]; Group B1: 100 mg/kg PO Q1Dx1): did not exhibited any loss of body weight | Tolerance (in words) ([2]; Group B1: 100 mg/kg PO Q1Dx1, corn oil, with sonication): well tolerated | Mean body weight (MBW) ([2]; Group B1: 100 mg/kg PO Q1Dx1, with sonication, D1): 29.73 ± 0.83 g | Mean body weight (MBW) ([2]; Group B1: 100 mg/kg PO Q1Dx1, with sonication, D2): 29.9 ± 0.2 g | Mean body weight (MBW) ([2]; Group B1: 100 mg/kg PO Q1Dx1, with sonication, D3): 30.23 ± 0.4 g | Mean body weight (MBW) ([2]; Group B1: 100 mg/kg PO Q1Dx1, with sonication, D4): 30.5 ± 0.98 g | Mean body weight (MBW) ([2]; Group B1: 100 mg/kg PO Q1Dx1, with sonication, D7): 31.2 ± 0.1 g | Mean body weight (MBW) ([2]; Group B1: 100 mg/kg PO Q1Dx1, with sonication, D11): 32.17 ± 1.36 g | Mean body weight (MBW) ([2]; Group B1: 100 mg/kg PO Q1Dx1, with sonication, D14): 31.4 ± 0.44 g | Macroscopic autopsy: Observations ([2]; Group B1: 100 mg/kg PO Q1Dx1, *one mouse had air bubble in the caecum): NTR* | Mean body weight (MBW) ([2]; Group B1: corn oil, 10 mg/ml with sonication, 100 mg/kg PO Q1Dx1, D0, 100 mg/kg): 31.67 ± 2.25 g | Loss of body weight (in words) ([2]; Group B2: 200 mg/kg PO Q1Dx1): did not exhibited any loss of body weight | Tolerance (in words) ([2]; Group B2: 200 mg/kg PO Q1Dx1, corn oil, with sonication): well tolerated | Mean body weight (MBW) ([2]; Group B2: 200 mg/kg PO Q1Dx1, with sonication, D1): 30.97 ± 0.4 g | Mean body weight (MBW) ([2]; Group B2: 200 mg/kg PO Q1Dx1, with sonication, D2): 30.93 ± 0.25 g | Mean body weight (MBW) ([2]; Group B2: 200 mg/kg PO Q1Dx1, with sonication, D3): 30.3 ± 0.85 g | Mean body weight (MBW) ([2]; Group B2: 200 mg/kg PO Q1Dx1, with sonication, D7): 31.6 ± 1.97 g | Mean body weight (MBW) ([2]; Group B2: 200 mg/kg PO Q1Dx1, with sonication, D10): 32.1 ± 3.2 g | Mean body weight (MBW) ([2]; Group B2: 200 mg/kg PO Q1Dx1, with sonication, D14): 31.9 ± 1.15 g | Macroscopic autopsy: Observations ([2]; Group B2: 200 mg/kg PO Q1Dx1, sacrifice at end of study): NTR | Mean body weight (MBW) ([2]; Group B2: corn oil, 20 mg/ml with sonication, 200 mg/kg PO Q1Dx1, D0, 200 mg/kg): 30.67 ± 0.21 g | Loss of body weight (in words) ([2]; Group B3: 200 mg/kg PO Q1Dx1): did not exhibited any loss of body weight | Tolerance (in words) ([2]; Group B3: 200 mg/kg PO Q1Dx1, corn oil, without sonication): well tolerated | Mean body weight (MBW) ([2]; Group B3: 200 mg/kg PO Q1Dx1, without sonication, D1): 32.73 ± 1.46 g | Mean body weight (MBW) ([2]; Group B3: 200 mg/kg PO Q1Dx1, without sonication, D2): 32.5 ± 0.62 g | Mean body weight (MBW) ([2]; Group B3: 200 mg/kg PO Q1Dx1, without sonication, D4): 31.73 ± 0.9 g | Mean body weight (MBW) ([2]; Group B3: 200 mg/kg PO Q1Dx1, without sonication, D7): 32.2 ± 0.5 g | Mean body weight (MBW) ([2]; Group B3: 200 mg/kg PO Q1Dx1, without sonication, D11): 34.1 ± 1.51 g | Mean body weight (MBW) ([2]; Group B3: 200 mg/kg PO Q1Dx1, without sonication, D15): 35.43 ± 1.99 g | Macroscopic autopsy: Observations ([2]; Group B3: 200 mg/kg PO Q1Dx1, sacrifice at end of study): NTR | Mean body weight (MBW) ([2]; Group B3: corn oil, 20 mg/ml without sonication, 200 mg/kg PO Q1Dx1, D0, 200 mg/kg): 33.6 ± 2.11 g | Loss of body weight (in words) ([2]; Group B4: 400 mg/kg PO 2Q1Dx1): did not exhibited any loss of body weight | Tolerance (in words) ([2]; Group B4: 400 mg/kg PO 2Q1Dx1, corn oil, without sonication): well tolerated | Mean body weight (MBW) ([2]; Group B4: 400 mg/kg PO 2Q1Dx1, without sonication, D1): 30.47 ± 2.2 g | Mean body weight (MBW) ([2]; Group B4: 400 mg/kg PO 2Q1Dx1, without sonication, D2): 30.47 ± 1.3 g | Mean body weight (MBW) ([2]; Group B4: 400 mg/kg PO 2Q1Dx1, without sonication, D5): 31.03 ± 1.55 g | Mean body weight (MBW) ([2]; Group B4: 400 mg/kg PO 2Q1Dx1, without sonication, D9): 31.77 ± 2.32 g | Mean body weight (MBW) ([2]; Group B4: 400 mg/kg PO 2Q1Dx1, without sonication, D13): 31.7 ± 1.18 g | Mean body weight (MBW) ([2]; Group B4: 400 mg/kg PO 2Q1Dx1, without sonication, D14): 32.53 ± 1 g | Macroscopic autopsy: Observations ([2]; Group B4: 400 mg/kg PO 2Q1Dx1, sacrifice at end of study): NTR | Mean body weight (MBW) ([2]; Group B4: corn oil, 20 mg/ml without sonication, 400 mg/kg PO 2Q1Dx1 (2 hours between the 2 injections), D0, 400 mg/kg): 31.03 ± 1.86 g | Autopsy, macroscopic observations (in words) ([2]; all treated groups): No particular sign was observed | Dose up to which well tolerated (maximal solubility) ([2]; in corn oil, PO, female mice): up to 400 mg/kg | Signs of toxicity at the dose levels tested (in words) ([2]; mice): no signs of toxicity | IC50 [3]: 150 µM | Excipient allowing the best solubilisation [4]: corn oil
